Values after ≈ are worked out from the molar mass of the structure shown.
System: up to 32 different microorganisms
Experiment: in vitro antibacterial activity (MIC), agar dilution on Brain Heart Infusion (BHI) agar with Steers replicator
Type: cell-based
Conditions: unit assumed
Method in brief: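 MIC read visually: lowest drug level with no growth, slight haze or sparsely isolated colonies on the inoculum spot relative to drug-free control. Serial aqueous compound dilutions in BHI agar, 1:100 inoculum (1:10 slow strains), 20 to 24 hours at 35°-37° C.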

[1] = Candida albicans CCH 442 (code TT)
[2] = Enterococcus faecism ATCC 8043 (code II)
[3] = Escherichia coli DC-2 (code SS)
[4] = Escherichia coli JUHL (code QQ)
[5] = Haemophilis influenzae DILL AMP R (code WW)
[6] = Micrococcus luteus ATCC 4698 (code PP)
[7] = Micrococcus luteus ATCC 9341 (code OO)
[8] = Mycobacterium smegmatis ATCC 114 (code UU)
[9] = Nocardia Asteroides ATCC9970 (code VV)
[10] = Staphylococcus aureus 1775 (code GG)
[11] = Staphylococcus aureus A5177 (code BB)
[12] = Staphylococcus aureus A-5278 (code CC)
[13] = Staphylococcus aureus ATCC 6538P (code AA)
[14] = Staphylococcus aureus CMX 553 (code FF)
[15] = Staphylococcus aureus CMX 642A (code DD)
[16] = Staphylococcus aureus NCTC10649M (code EE)
[17] = Staphylococcus epidermidis 3519 (code HH)
[18] = Streptococcus Pneumonia 5649 (code ZZA)
[19] = Streptococcus Pneumonia 5979 (code ZZ)
[20] = Streptococcus Pneumonia ATCC6303 (code XX)
[21] = Streptococcus Pneumonia GYR 1171 (code YY)
[22] = Streptococcus agalactiae CMX 508 (code KK)
[23] = Streptococcus bovis A-5169 (code JJ)
[24] = Streptococcus pyogenes 930 (code MM)
[25] = Streptococcus pyogenes EES61 (code LL)
[26] = Streptococcus pyogenes PIU 2548 (code NN)

Structure (SMILES) | MIC [1] | MIC [2] | MIC [3] | MIC [4] | MIC (Escherichia coli SS (code RR)) | MIC [6] | MIC [7] | MIC [8] | MIC [9] | MIC [10] | MIC [11] | MIC [12] | MIC [13] | MIC [14] | MIC [15] | MIC [16] | MIC [17] | MIC [22] | MIC [23] | MIC [24] | also measured
CC[C@H]1OC(=O)[C@H](C)C(=O)[C@H](C)[C@@H](O[C@@H]2O[C@H](C)C[C@H](N(C)C)[C@H]2O)[C@@](C)(OCCCc2cnc3ccccc3c2)C[C@@H](C)C2=NCCN3C(=O)O[C@@]1(C)[C@H]3[C@H]2C [Example 171, Compound of Formula (VII): A, B, D, and E are H, R is —CH2CH2CH2-(3-quinolyl)] | > 100 µg/mL | 0.05 µg/mL | 25 µg/mL | 25 µg/mL | 0.39 µg/mL | 0.39 µg/mL | 0.01 µg/mL | 0.78 µg/mL | 0.05 µg/mL | > 100 µg/mL | 0.05 µg/mL | > 100 µg/mL | 0.1 µg/mL | 0.05 µg/mL | 0.05 µg/mL | 0.02 µg/mL | 0.1 µg/mL | 0.02 µg/mL | ≤ 0.005 µg/mL | 25 µg/mL | MIC [5]: 2 µg/mL; MIC [18]: 1 µg/mL; MIC [19]: > 16 µg/mL; MIC [20]: 0.03 µg/mL; MIC [21]: 0.03 µg/mL; MIC [25]: ≤ 0.005 µg/mL; MIC [26]: 0.2 µg/mL
CCCO[C@@]1(C)C[C@@H](C)C(=O)[C@H](C)[C@@H](O)[C@](C)(O)[C@@H](CC)OC(=O)[C@H](C)C(=O)[C@H](C)[C@H]1O[C@@H]1O[C@H](C)C[C@H](N(C)C)[C@H]1O [Example 3, Compound of Formula (VIII): X is O, R is propyl] | > 100 µg/mL | 25 µg/mL | > 100 µg/mL | > 100 µg/mL | 50 µg/mL | 100 µg/mL | 12.5 µg/mL | > 100 µg/mL | 12.5 µg/mL | > 100 µg/mL | > 100 µg/mL | > 100 µg/mL | 25 µg/mL | 25 µg/mL | 100 µg/mL | 25 µg/mL | 50 µg/mL | 25 µg/mL | 25 µg/mL | > 100 µg/mL | MIC [25]: 100 µg/mL; MIC [26]: 100 µg/mL
CCC1OC(=O)C(C)C(=O)C(C)C(OC2OC(C)CC(N(C)C)C2O)C(C)(OCC=Cc2ccc3[nH]ccc3c2)CC(C)C(=O)C(C)C2NC(=O)OC12C (stereo not shown) [Example 190, R is —CH2CH═CH-(5-indolyl)] | > 100 µg/mL | 0.02 µg/mL (≈ 0.0265 µM) | 100 µg/mL (≈ 133 µM) | 100 µg/mL (≈ 133 µM) | 0.2 µg/mL (≈ 0.265 µM) | 0.1 µg/mL (≈ 0.133 µM) | 0.01 µg/mL (≈ 0.0133 µM) | 0.78 µg/mL (≈ 1.03 µM) | 0.1 µg/mL (≈ 0.133 µM) | > 100 µg/mL | 0.05 µg/mL (≈ 0.0663 µM) | > 100 µg/mL | 0.05 µg/mL (≈ 0.0663 µM) | 0.02 µg/mL (≈ 0.0265 µM) | 0.05 µg/mL (≈ 0.0663 µM) | 0.02 µg/mL (≈ 0.0265 µM) | 0.05 µg/mL (≈ 0.0663 µM) | ≤ 0.005 µg/mL | ≤ 0.005 µg/mL | 12.5 µg/mL (≈ 16.6 µM) | MIC [5]: 4 µg/mL (≈ 5.31 µM); MIC [18]: 0.5 µg/mL (≈ 0.663 µM); MIC [19]: > 128 µg/mL; MIC [20]: 0.06 µg/mL (≈ 0.0796 µM); MIC [21]: 0.03 µg/mL (≈ 0.0398 µM); MIC [25]: ≤ 0.005 µg/mL; MIC [26]: 0.1 µg/mL (≈ 0.133 µM)
CC[C@H]1OC(=O)[C@H](C)C(=O)[C@H](C)[C@@H](O[C@@H]2O[C@H](C)C[C@H](N(C)C)[C@H]2O)[C@@](C)(OCc2ccc3ccccc3c2)C[C@@H](C)C(=O)[C@H](C)[C@@H](O)[C@]1(C)O [Example 173] | 100 µg/mL (≈ 140 µM) | 1.56 µg/mL (≈ 2.19 µM) | > 100 µg/mL | > 100 µg/mL | 50 µg/mL (≈ 70 µM) | 3.1 µg/mL (≈ 4.34 µM) | 0.78 µg/mL (≈ 1.09 µM) | 3.1 µg/mL (≈ 4.34 µM) | 6.2 µg/mL (≈ 8.68 µM) | 100 µg/mL (≈ 140 µM) | 50 µg/mL (≈ 70 µM) | 100 µg/mL (≈ 140 µM) | 12.5 µg/mL (≈ 17.5 µM) | 12.5 µg/mL (≈ 17.5 µM) | 12.5 µg/mL (≈ 17.5 µM) | 12.5 µg/mL (≈ 17.5 µM) | 12.5 µg/mL (≈ 17.5 µM) | 0.78 µg/mL (≈ 1.09 µM) | 0.78 µg/mL (≈ 1.09 µM) | 50 µg/mL (≈ 70 µM) | MIC [5]: 128 µg/mL (≈ 179 µM); MIC [18]: 4 µg/mL (≈ 5.6 µM); MIC [19]: 32 µg/mL (≈ 44.8 µM); MIC [20]: 2 µg/mL (≈ 2.8 µM); MIC [21]: 2 µg/mL (≈ 2.8 µM); MIC [25]: 0.78 µg/mL (≈ 1.09 µM); MIC [26]: 3.1 µg/mL (≈ 4.34 µM)

From patent publication USRE39591E1, “6-O-substituted ketolides having antibacterial activity” (Abbott Laboratories, priority 1996, dated 2007)
